Converted amounts (≈) assume the structure as drawn. “And” between values parts separate entries of the source, which are not always exact repeats. Identical values can stand only once. Like-named read-outs stand apart in the source and are kept apart here.

This is an account of results in patent US20240116985A1, “STAPLED PEPTIDES AND METHODS THEREOF” (priority 2020, published 2024).

Data set [1] can be described thus: Solubility in PBS. Type of data set: physicochemical. A digest of the protocol: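 The PBS solution was ultracentrifuged and the supernatant analyzed by HPLC. Its peak area was divided by that of a 50 μM peptide DMSO reference injection and multiplied by 50 uM to give solubility.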
Data set [2] deals with T1, beta-catenin/TCF4 engagement (Homo sapiens, UniProt P35222).
T1 construct: expressed in transfected cells; host or cells: HEK293
T1 sequence (P35222 1-781): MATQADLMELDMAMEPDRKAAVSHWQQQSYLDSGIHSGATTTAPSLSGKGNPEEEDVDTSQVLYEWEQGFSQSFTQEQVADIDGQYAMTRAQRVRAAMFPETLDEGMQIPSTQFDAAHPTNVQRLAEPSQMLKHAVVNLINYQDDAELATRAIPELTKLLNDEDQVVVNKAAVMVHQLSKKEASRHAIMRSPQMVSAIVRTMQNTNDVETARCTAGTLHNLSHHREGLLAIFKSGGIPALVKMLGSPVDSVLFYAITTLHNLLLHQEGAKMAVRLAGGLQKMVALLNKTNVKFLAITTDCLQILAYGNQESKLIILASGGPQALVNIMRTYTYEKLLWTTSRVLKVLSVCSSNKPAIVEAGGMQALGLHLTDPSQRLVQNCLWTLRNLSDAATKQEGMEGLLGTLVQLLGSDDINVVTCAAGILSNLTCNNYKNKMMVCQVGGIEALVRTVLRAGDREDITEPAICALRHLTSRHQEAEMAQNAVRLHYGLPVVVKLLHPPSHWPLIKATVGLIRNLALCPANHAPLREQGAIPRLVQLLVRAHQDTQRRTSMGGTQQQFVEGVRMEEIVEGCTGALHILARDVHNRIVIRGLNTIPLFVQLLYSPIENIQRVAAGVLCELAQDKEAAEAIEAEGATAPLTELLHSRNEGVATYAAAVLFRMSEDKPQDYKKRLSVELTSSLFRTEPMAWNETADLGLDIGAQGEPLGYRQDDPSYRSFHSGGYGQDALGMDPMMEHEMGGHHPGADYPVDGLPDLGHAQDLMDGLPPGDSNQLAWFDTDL
In words: Nano-BRET target engagement assay (B-cat-Halo & TCF4-Luc in HEK293 cells). Type of data set: cell-based. The conditions noted are these: for BRET % Inhibition: replicates.

The nature of data set [3]: in vitro. As to conditions: human, HEK293 cells, CTG (CellTiter Glo) Relative to Media. Type of data set: cell-based. The procedure:
(§1) On Day 3, fluorescence was read with Nano-BRET substrates. Remove plates from incubator to allow to reach to RT (30 min). Also equilibrate CTG reagent to Rm Temp. Dilute Nano-BRET substrate 1:100 in Assay media. Add 25 uL of diluted substrate to each well and shake for 30 seconds. Read on ClarioSTAR or GloMAX right away (within 10 min). Donor emission @ 460 nm. Acceptor emission @ 618 nm. Use the same plate to measure cell viability (Cell Titer-Glo-2.0 (CTG) Viability test). After reading BRET signal, add CTG reagent to each well at 1:2 ratio and shake on orbital shaker for 2 min. Incubate at Rm Temp for 10-30 min. Read luminescence on ClarioSTAR or GloMAX. Analysis was performed using Prism. Non-linear regression. Log (inhibitor) vs response—variable slope (four parameters). For CTG data linear values (not logarithmic).
(In ATP-based viability assays light output follows the ATP content of the culture.)

The test system of data set [4] is HEK293 cells. In words: in vitro. As to conditions: human, 1.25 µM. Type of data set: cell-based. The procedure:
as §1

Data set [5] in a line: CHI Log D procedure. Type of data set: physicochemical. The conditions noted are these: for CHI Log D: pH 7.4.
In data set [6] the test system is DLD1. In words: Reporter assay (e.g., DLD1 reporter assay) (FIG. 3). Format: cell-based. As to conditions: compared to a control peptide I-796. The source says:
FIG. 3. Provided technologies can effectively modulate expression.
Various technologies can be utilized for characterizing and/or assessing provided technologies (e.g., agents (e.g., various peptides), compositions, methods, etc.) in accordance with the present disclosure. As described herein, in some embodiments, a useful technology is or comprises fluorescence polarization. In some embodiments, a useful technology assesses Log P or Log D. In some embodiments, a useful technology is or comprises a CHI Log D assay. In some embodiments, a useful technology assesses solubility. In some embodiments, a useful technology is or comprises NanoBRET. In some embodiments, a useful technology is or comprises a reporter assay (e.g., DLD1 reporter assay). In some embodiments, a useful technology is or comprises alphascreen. Certain useful protocols are described in the Examples. Those skilled in the art appreciate that suitable adjustments may be made to such protocols, e.g., according to specific conditions, agents, purposes, etc.
(In general: Reporter assays use an easily measured gene product as a stand-in for the process of interest.)

Data set [7] relates to TCF/LEF luciferase Reporter in DLD1 cells. In words: TCF reporter assay (DLD1 TCF/LEF luciferase reporter, Bright-Glo). Format: cell-based. A digest of the protocol:
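DLD1 cells stably carrying a TCF/LEF luciferase reporter were plated at 5000 cells/well in RPMI + 4% FBS and treated overnight with a 1:2 compound dilution series. Bright-Glo luminescence read on day 3; viability by CellTiter-Glo. Absolute IC50 determined.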

Data set [8] deals with PLOD2 and LCOR. In words: Expression of beta-catenin-independent genes (FIG. 2). Format: cell-based.
In data set [9] the test system is Axin2 and Myc. Kind of data set: Gene expression in cells (FIG. 1). Format: cell-based. From the text: FIG. 1. Provided agents can modulate gene expression in cells.
Data set [10] concerns the target T2, full-length beta-Catenin (Uniprot ID P35222) (Homo sapiens, UniProt P35222).
T2 construct: 10 nM full-length beta-Catenin (Uniprot ID P35222)
T2 sequence (P35222 1-781): T1 sequence (P35222 1-781)
Kind of data set: Fluorescence polarization IC50 (beta-catenin / 5FAM-TCF4 10-53 competition). Format: binding.

The mark [11] stands for this setting: plate row B = 20 uM, integration 0.3 s, reading 1.
Where [12] appears, read: Peptide + ST-Protein (SAINT-Protein lipid), read-out: Nano-BRET Abs IC50.
Setting [13] is: Peptide only, read-out: Nano-BRET Abs IC50.
The mark [14] stands for this setting: absolute IC50, read-out: NanoBRET Abs IC50.
[15] abbreviates: Peptide + ST-Protein (SAINT-Protein lipid), read-out: TCF Reporter Assay Abs IC50.
The mark [16] stands for this setting: Peptide only, read-out: TCF Reporter Assay Abs IC50.
The mark [17] stands for this setting: fluorescence polarization, beta-catenin, read-out: FP EC50.

The term solubility denotes the concentration that dissolves in the medium under given conditions. A higher solubility goes with much dissolved substance. What is called viability is a read-out of living cells in per cent, often relative to untreated cells. The term chromatographic logD denotes a lipophilicity value derived from retention on a column. In data set [1] (Solubility (uM)), `CC(=O)N1CCC[C@]12CC=CCCCC1(CCCC=CCCCOC(=O)N3CC[C@@](C(=O)N[C@@H](Cc4ccsc4)C(=O)N[C@@H](Cc4csc5ccccc45)C(=O)N[C@@H](CCC(N)=O)C(N)=O)(C3)NC(=O)[C@H](CC(N)=O)NC(=O)[C@H](CC(=O)O)NC(=O)[C@H](C)NC(=O)[C@H](C)NC(=O)[C@H](CC(=O)O)NC(=O)[C@H](CC(=O)O)NC1=O)NC(=O)[C@H](CC(C)(C)C)NC(=O)[C@H](Cc1ccccc1)NC2=O` (stereo partly drawn) [I-797, Ac-PL3-Phe-Npg-B5-Asp-Asp-Ala-Ala-Asp-Asn-PyrS2-3Thi-BztA-Gln-NH2] yielded a solubility at 15 min of 45 µM (≈ 86.3 µg/mL). In addition, the “BRET % Inhibition” value in data set [2] (0.625 uM) was −56.5% and −6.9% and 8.3%; in [2] (1.25 uM), −24.8% and −1.1% and −4.0%; in [2] (2.5 uM) it was −21.3% and 26.5% and −11.7%; in data set [2] (5 uM) it was −16.9% and −28.4% and −18.6%; in data set [2] (10 uM), −21.7% and −21.9% and 1.7%; in data set [2] (20 uM) it was −36.7% and −0.3% and −19.5%. Also, in data set [2] (HEK293, @ 10 uM, read-out: NanoBRET % inh @ 10 uM), the inhibition at 10 µM is 4.3%. In addition, the “BRET Acceptor 600 LP raw reading” value in [2] (setting [11]) was 860 and 660 and 640; in data set [2] (plate row D = 5 uM), 510 and 420 and 630; in data set [2] (plate row G = 0.625 uM) it was 410 and 440 and 530. Besides, the “BRET Donor 450 BP raw reading” value in [2] (setting [11]) is 58480 and 55870 and 47990; in data set [2] (plate row D = 5 uM), 38850 and 29900 and 47500; in data set [2] (plate row E = 2.5 uM), 34130 and 22720 and 40100; in data set [2] (plate row G = 0.625 uM), 25180 and 35670 and 47630. Moreover, in [2] (read-out: NanoBRET IC50), the IC50 is over 20000 nM. For the same compound, in [3], the viability at 0.625 µM is 104%. Further, the viability at 1.25 µM in data set [3] is 104%. Besides, the viability at 2.5 µM in data set [3] amounted to 103%. Further, the viability at 5 µM in data set [3] worked out at 102%. In addition, in [3], the viability at 10 µM stood at 100%. Further, the viability at 20 µM in data set [3] came to 92%. Also, in data set [4], the “CTG (CellTiter Glo) Relative to Media” value was found to be 101. Also, the chromatographic logD in data set [5] (pH 7.4, CHI Log D) is 2.32.
For the compound `CC(=O)N1CCC[C@]12CC=CCCCC1(CCCC=CCCCOC(=O)N3CC[C@@](C(=O)N[C@@H](Cc4ccsc4)C(=O)N[C@@H](Cc4csc5ccccc45)C(=O)N[C@@H](CCC(N)=O)C(N)=O)(C3)NC(=O)[C@H](CC(C)C)NC(=O)[C@H](Cc3ccccc3)NC(=O)[C@H](C)NC(=O)[C@H](C)NC(=O)[C@H](CN(CC(=O)O)CC(F)(F)F)NC(=O)[C@H](CC(=O)O)NC1=O)NC(=O)[C@H](CC(C)(C)C)NC(=O)[C@H](CC(=O)O)NC2=O` (stereo partly drawn) [I-849, Ac-PL3-Asp-Npg-B5-Asp-TfeGA-Ala-Ala-Phe-Leu-PyrS2-3Thi-BztA-Gln-NH2], in data set [6], the “expression in a report assay” value is “can effectively reduce expression”. The IC50 in data set [2] (setting [12]) was 700 nM; in data set [2] (setting [13]), 5000 nM; in data set [2] (setting [14]), 2600 nM; in data set [2] (read-out: NanoBRET Abs IC50), 3600 nM; in [2] (read-out: NanoBRET IC50), 2300 nM; in data set [7] (setting [15]) it was 200 nM. Moreover, the IC50 in [7] (setting [16]) stood at 5000 nM; in data set [7] (read-out: DLD1 4% Abs IC50, DLD1 4%) it was 1100 nM; in data set [10] (setting [17]), 7 nM; in data set [10] (read-out: beta-Catenin FP IC50), 8 nM. The “expression of beta-catenin-independent genes including beta-catenin-independent WNT target genes such as PLOD2 and LCOR” value in data set [8] is given as “do not significantly impact expression”. Besides, the “expression of various nucleic acids such as Axin2 and Myc” value in data set [9] is given as “can effectively reduce expression”. Also, in [5], the “CHI Log D” value was 2.393.
As usually defined, the Solubility is the concentration that dissolves in the medium under given conditions. For the compound `CC(=O)N1CCC[C@]12CC=CCCCC1(CCCC=CCCCOC(=O)N3CC[C@@](C(=O)N[C@@H](Cc4ccccc4Cl)C(=O)N[C@@H](Cc4csc5ccccc45)C(=O)N[C@@H](CCC(N)=O)C(N)=O)(C3)NC(=O)[C@H]([C@@H](C)O)NC(=O)[C@H](Cc3ccccc3)NC(=O)[C@H](C)NC(=O)[C@H](C)NC(=O)[C@H](CN(CC(=O)O)CC(F)(F)F)NC(=O)[C@H](CC(=O)O)NC1=O)NC(=O)[C@H](CC(C)(C)C)NC(=O)[C@H](CC(=O)O)NC2=O` (stereo partly drawn) [I-922, Ac-PL3-Asp-Npg-B5-Asp-TfeGA-Ala-Ala-Phe-Thr-PyrS2-2C1F-BztA-Gln-NH2], the “Solubility” value in data set [1] was determined as 32 µM (≈ 65.4 µg/mL). Further, the “expression in a report assay” value in [6] is “can effectively reduce expression”. The IC50 in [2] (setting [12]) is 1000 nM; in data set [2] (setting [13]), 6000 nM; in [2] (setting [14]), 2700 nM; in data set [2] (read-out: NanoBRET Abs IC50), 2700 nM; in [2] (read-out: NanoBRET IC50), 2300 nM; in [7] (setting [15]), 200 nM. Besides, the values for the IC50 in data set [7] (setting [16]), in data set [10] (setting [17]) and in [10] (read-out: beta-Catenin FP IC50) were 5000 nM, 12 nM and 12 nM, respectively. In [8], the “expression of beta-catenin-independent genes including beta-catenin-independent WNT target genes such as PLOD2 and LCOR” value is given as “do not significantly impact expression”. Further, in data set [9], the “expression of various nucleic acids such as Axin2 and Myc” value was “can effectively reduce expression”. In addition, the “CHI Log D” value in data set [5] was determined as 2.344.
